Where no end group is shown, it is not given here.
T1: KLHDC2 (Homo sapiens, UniProt Q9Y2U9)
T1 sequence (Q9Y2U9 1-406): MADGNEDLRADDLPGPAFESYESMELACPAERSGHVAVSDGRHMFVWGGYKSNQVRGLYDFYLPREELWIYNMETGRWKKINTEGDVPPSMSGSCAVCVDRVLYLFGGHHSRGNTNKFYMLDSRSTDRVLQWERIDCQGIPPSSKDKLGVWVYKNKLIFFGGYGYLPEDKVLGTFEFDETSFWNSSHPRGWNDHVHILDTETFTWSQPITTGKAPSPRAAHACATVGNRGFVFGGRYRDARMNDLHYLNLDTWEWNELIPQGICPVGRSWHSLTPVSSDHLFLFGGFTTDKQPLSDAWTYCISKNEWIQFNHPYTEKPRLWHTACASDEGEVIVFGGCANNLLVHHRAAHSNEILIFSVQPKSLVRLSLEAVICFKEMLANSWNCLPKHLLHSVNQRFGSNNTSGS

T2: KLHDC2 (as used in the AlphaScreen competition assay) (human, UniProt Q9Y2U9 1-406)
T2 sequence (looked up): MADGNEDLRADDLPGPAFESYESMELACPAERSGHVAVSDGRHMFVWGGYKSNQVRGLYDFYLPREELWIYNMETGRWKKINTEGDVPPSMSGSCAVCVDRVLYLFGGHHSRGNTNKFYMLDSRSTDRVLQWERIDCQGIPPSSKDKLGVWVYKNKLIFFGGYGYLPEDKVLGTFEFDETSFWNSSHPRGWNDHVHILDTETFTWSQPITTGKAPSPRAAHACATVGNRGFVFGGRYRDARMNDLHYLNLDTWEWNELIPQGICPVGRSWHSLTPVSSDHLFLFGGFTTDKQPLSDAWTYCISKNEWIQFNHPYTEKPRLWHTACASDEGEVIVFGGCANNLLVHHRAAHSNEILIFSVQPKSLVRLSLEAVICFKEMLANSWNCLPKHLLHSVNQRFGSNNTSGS


What was measured:
KLHDC2 [1] = target: T1, KLHDC2
KLHDC2 [2] = target: T1, KLHDC2; assay: Luminescence-based competition assay; details: discussion of binding of both peptides; HLRGSPPPMAGG characterized in ref [19]
KLHDC2 [3] = target: T1, KLHDC2; details: recently characterized selenoprotein fragment, comparison value; ref [19]; cited from earlier work
[4] = target: T2, KLHDC2 (as used in the AlphaScreen …); assay: AlphaScreen or HTRF

Molecule	Identification as interacting peptide by native top-down MS (KLHDC2 [1])	other results
ASDEGEVIVFGG [ASDEGEVIVFGG]	identified using native top-down MS	
EKGGGSGGG	identified using native top-down MS	
GGGSGGG	identified using native top-down MS	
HLRGSPPPMAGG		Binding to KLHDC2 (KLHDC2 [2]): extremely tight binding; IC50 (KLHDC2 [3]): 3.4 nM
ASDEGEVIVFGG [synthesized peptide F (ASDEGEVIVFGG)]		IC50 [4]: 5.3 nM
